Results reported in patent publication US9556199B2, “Thieno[3,2-d]pyrimidines derivatives for the treatment of viral infections” (Janssen Sciences Ireland UC, priority 2013, dated 2017).

How the values were obtained:
Type in all cases: cell-based
[1] = biological target: T1, human TLR7 (Homo sapiens, UniProt Q9NYK1); assay: TLR7 cellular NFκB-luc reporter assay in transiently transfected HEK293 cells; settings: lowest effective concentration, 6 hours incubation
T1 construct: expressed in transfected cells; host or cells: HEK293
T1 sequence (Q9NYK1 27-1049): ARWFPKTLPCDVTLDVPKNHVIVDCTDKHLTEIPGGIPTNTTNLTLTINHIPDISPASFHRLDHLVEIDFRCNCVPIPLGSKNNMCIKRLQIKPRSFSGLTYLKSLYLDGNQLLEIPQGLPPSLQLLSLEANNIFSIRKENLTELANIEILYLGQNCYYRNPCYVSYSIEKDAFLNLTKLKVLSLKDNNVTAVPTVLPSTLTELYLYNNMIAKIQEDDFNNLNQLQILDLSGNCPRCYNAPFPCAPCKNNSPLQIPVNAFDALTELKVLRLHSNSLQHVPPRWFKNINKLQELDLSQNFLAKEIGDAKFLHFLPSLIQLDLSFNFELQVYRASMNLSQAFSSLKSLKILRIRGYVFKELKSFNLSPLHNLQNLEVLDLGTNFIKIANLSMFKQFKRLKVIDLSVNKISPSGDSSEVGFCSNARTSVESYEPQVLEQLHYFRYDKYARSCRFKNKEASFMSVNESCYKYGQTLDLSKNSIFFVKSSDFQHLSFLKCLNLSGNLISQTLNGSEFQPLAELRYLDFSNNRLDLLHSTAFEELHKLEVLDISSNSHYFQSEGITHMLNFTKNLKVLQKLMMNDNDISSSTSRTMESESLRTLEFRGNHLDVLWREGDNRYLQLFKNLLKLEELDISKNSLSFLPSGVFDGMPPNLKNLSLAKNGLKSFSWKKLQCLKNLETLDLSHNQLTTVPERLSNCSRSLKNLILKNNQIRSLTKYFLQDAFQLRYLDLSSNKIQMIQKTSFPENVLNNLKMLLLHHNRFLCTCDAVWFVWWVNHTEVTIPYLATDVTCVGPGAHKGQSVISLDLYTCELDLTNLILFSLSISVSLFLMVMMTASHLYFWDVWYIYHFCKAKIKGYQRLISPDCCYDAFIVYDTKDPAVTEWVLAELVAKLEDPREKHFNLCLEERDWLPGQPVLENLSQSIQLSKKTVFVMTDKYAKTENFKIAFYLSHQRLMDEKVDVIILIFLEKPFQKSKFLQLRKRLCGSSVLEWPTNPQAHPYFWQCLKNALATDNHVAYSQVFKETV
Experimental: (§1) The ability of compounds to activate human TLR7 and/or TLR8 was assessed in a cellular reporter assay using HEK293 cells transiently transfected with a TLR7 or TLR8 expression vector and NFκB-luc reporter construct.
(§2) Briefly, HEK293 cells were grown in culture medium (DMEM supplemented with 10% FCS and 2 mM Glutamine). For transfection of cells in 15 cm dishes, cells were detached with Trypsin-EDTA, transfected with a mix of CMV-TLR7 or TLR8 plasmid (1700 ng), NFκB-luc plasmid (850 ng) and a transfection reagent and incubated for 48 h at 37° C. in a humidified 5% CO2 atmosphere. Transfected cells were then washed in PBS, detached with Trypsin-EDTA and resuspended in medium to a density of 1.25×10^5 cells/mL. Forty microliters of cells were then dispensed into each well in 384-well plates, where 200 nL of compound in 100% DMSO was already present. Following 6 hours incubation at 37° C., 5% CO2, the luciferase activity was determined by adding 15 μL of Steady Lite Plus substrate (Perkin Elmer) to each well and readout performed on a ViewLux ultraHTS microplate imager (Perkin Elmer). Dose response curves were generated from measurements performed in quadruplicates. Lowest effective concentrations (LEC) values, defined as the concentration that induces an effect which is at least two fold above the standard deviation of the assay, were determined for each compound.

[2] = biological target: T2, human TLR8 (Homo sapiens, UniProt Q9NR97); assay: TLR8 cellular NFκB-luc reporter assay in transiently transfected HEK293 cells; settings: lowest effective concentration, 6 hours incubation
T2 construct: expressed in transfected cells; host or cells: HEK293
T2 sequence (Q9NR97 27-1041): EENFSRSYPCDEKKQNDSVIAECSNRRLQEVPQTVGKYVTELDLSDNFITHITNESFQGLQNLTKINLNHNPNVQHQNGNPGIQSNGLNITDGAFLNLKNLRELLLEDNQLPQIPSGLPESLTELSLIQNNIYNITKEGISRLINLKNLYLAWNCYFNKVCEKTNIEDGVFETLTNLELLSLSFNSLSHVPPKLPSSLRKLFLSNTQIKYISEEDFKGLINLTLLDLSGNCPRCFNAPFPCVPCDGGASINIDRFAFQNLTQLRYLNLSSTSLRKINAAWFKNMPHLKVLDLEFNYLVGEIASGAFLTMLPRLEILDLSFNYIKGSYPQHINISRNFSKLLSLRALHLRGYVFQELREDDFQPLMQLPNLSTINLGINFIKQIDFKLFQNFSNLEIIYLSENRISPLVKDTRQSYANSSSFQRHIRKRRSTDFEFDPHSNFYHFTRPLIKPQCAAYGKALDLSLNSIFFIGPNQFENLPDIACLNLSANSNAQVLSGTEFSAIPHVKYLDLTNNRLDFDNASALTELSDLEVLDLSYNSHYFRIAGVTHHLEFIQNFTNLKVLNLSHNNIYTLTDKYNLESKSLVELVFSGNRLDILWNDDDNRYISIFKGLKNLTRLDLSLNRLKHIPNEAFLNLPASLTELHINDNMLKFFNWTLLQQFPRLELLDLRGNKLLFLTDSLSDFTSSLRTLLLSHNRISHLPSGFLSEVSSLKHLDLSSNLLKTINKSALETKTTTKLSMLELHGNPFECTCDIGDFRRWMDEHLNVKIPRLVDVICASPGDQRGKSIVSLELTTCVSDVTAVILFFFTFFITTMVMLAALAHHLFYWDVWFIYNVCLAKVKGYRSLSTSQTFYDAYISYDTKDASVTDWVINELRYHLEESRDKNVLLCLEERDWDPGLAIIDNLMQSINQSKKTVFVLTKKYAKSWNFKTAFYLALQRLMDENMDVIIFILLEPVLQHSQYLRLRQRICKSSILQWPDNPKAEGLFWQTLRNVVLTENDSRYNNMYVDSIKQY
Experimental: as §1, §2

[3] = system: interferon-stimulated responsive elements (ISRE); assay: Activation of ISRE promoter elements in HEK-ISREluc cells by conditioned media from compound-treated PBMC; settings: lowest effective concentration applied to PBMCs, supernatant transferred to HEK-ISREluc cells, 24 hours, read-out: HEK-ISRE luc (LEC)
Experimental: The potential of compounds to induce IFN-I was also evaluated by measuring the activation of interferon-stimulated responsive elements (ISRE) by conditioned media from PBMC. The ISRE element of sequence GAAACTGAAACT (SEQ ID NO: 1) is highly responsive to the STAT1-STAT2-IRF9 transcription factor, activated upon binding of IFN-I to their receptor IFNAR (Clontech, PT3372-5W). The plasmid pISRE-Luc from Clontech (ref. 631913) contains 5 copies of this ISRE element, followed by the firefly luciferase ORF. A HEK293 cell line stably transfected with pISRE-Luc (HEK-ISREluc) was established to profile the conditioned PBMC cell culture media.
Briefly, PBMCs were prepared from buffy coats of at least two donors using a standard Ficoll centrifugation protocol. Isolated PBMCs were resuspended in RPMI medium supplemented with 10% human AB serum and 2×10^5 cells/well were dispensed into 384-well plates containing compounds (70 μL total volume). After overnight incubation, 10 μL of supernatant was transferred to 384-well plates containing 5×10^3 HEK-ISREIuc cells/well in 30 μL (plated the day before). Following 24 hours of incubation, activation of the ISRE elements was measured by assaying luciferase activity using 40 μL/well Steady Lite Plus substrate (Perkin Elmer) and measured with ViewLux ultraHTS microplate imager (Perkin Elmer). The stimulating activity of each compound on the HEK-ISREluc cells was reported as LEC value, defined as the compound concentration applied to the PBMCs resulting in a luciferase activity at least two fold above the standard deviation of the assay. The LEC in turn indicates the degree of ISRE activation on transfer of a defined amount of PBMC culture medium. Recombinant interferon α-2a (Roferon-A) was used as a standard control compound.

SMILES	Human TLR 7 (LEC) [1] [µM]	Human TLR 8 (LEC) [2] [µM]	minimal effective concentration [3] [µM]
CCCCNc1nc(N)nc2cc(C)sc12 [Compound 1]	1.0	0.5	0.1
CCCCNc1nc(N)nc2c(C)csc12 [Compound 2]	2.2	1.0	0.6
CCCCNc1nc(N)nc2cc(C(C)(C)C)sc12 [Compound 3]	1.2	1.2	0.4
CCCC[C@@H](CO)Nc1nc(N)nc2ccsc12 [Compound 4]	0.5	0.03	0.04
CCC[C@@H](CO)Nc1nc(N)nc2ccsc12 [Compound 5]	2.7	0.2	0.4
CCCC[C@H](CO)Nc1nc(N)nc2ccsc12 [Compound 6]	>25	0.5	0.6
CCCCNc1nc(N)nc2ccsc12 [Compound 7]	1.1	0.7	0.3
CCCC[C@@H](CCO)Nc1nc(N)nc2ccsc12 [Compound 8]	1.2	0.7	0.3
CCCC(C)Nc1nc(N)nc2ccsc12 (stereo not drawn) [Compound 9]	3.3	2.5	3.8
CCC[C@H](Nc1nc(N)nc2ccsc12)C(=O)OC [Compound 10]	6.1	2.7	0.8
CCCCCNc1nc(N)nc2ccsc12 [Compound 11]	2.1	3.9	1.2
CCC[C@H](CO)Nc1nc(N)nc2ccsc12 [Compound 12]	>25	7.2	21
CCC[C@@H](CO)Nc1nc(N)nc2c(C)csc12 [Compound 13]	12	0.2	0.6
CCCCCNc1nc(N)nc2c(C)csc12 [Compound 14]	6.8	1.9	3.2
CCC[C@H](Nc1nc(N)nc2c(C)csc12)C(=O)OC [Compound 15]	>25	3.5	2.6
CCC[C@@H](CCO)Nc1nc(N)nc2c(C)csc12 [Compound 16]	5.2	1.6	0.7
CCCC[C@@H](CO)Nc1nc(N)nc2c(C)csc12 [Compound 17]	3.7	0.3	0.4
CCCC[C@H](CO)Nc1nc(N)nc2c(C)csc12 [Compound 18]	>25	0.8	1.7
CCCC[C@@H](CCO)Nc1nc(N)nc2c(C)csc12 [Compound 19]	3.9	1.6	0.6
CCCC(C)Nc1nc(N)nc2cc(C)sc12 (stereo not drawn) [Compound 20]	>25	6.9	10.1
CCCC[C@H](CO)Nc1nc(N)nc2cc(C)sc12 [Compound 21]	10.4	0.6	–
CCCC[C@@H](CO)Nc1nc(N)nc2cc(C)sc12 [Compound 22]	2.9	0.2	–
CCCC[C@@H](CO)Nc1nc(N)nc2cc(C(C)(C)C)sc12 [Compound 23]	2.7	2.6	–
